Where no end group is shown, it is not given here.
Assays:
[1] = test system: NMDA-evoked currents in cultured rat embryonic hippocampal neurons (NMDAr)
NMDA/GluN2B = conditions: Ro 25-6981 1 µM; ref [40]; cited from earlier work
[2] = test system: voltage-dependent Na^+ channels; conditions: 1 µM; ref [40]; cited from earlier work
[3] = test system: voltage-dependent Ca^+2 channels; conditions: 1 µM; ref [40]; cited from earlier work
[4] = test system: NMDA-evoked currents in hippocampal neurons; conditions: cited from earlier work
[5] = test system: NMDA-evoked currents in cortical neurons; conditions: cited from earlier work
GluN1a–GluN2B = conditions: cited from earlier work
[6] = test system: NMDAr containing the GluN2B subunit; conditions: cited from earlier work

Molecule | block of NMDA-evoked currents [1] | reversibility of block [1] | use-dependence of block [1] | block of NMDA-evoked currents, percent (GluN2B blocker) [1] [%] | 1 µM relative to the concentration producing 50% inhibition of NMDA/GluN2B-mediated currents (NMDA/GluN2B) [fold] | effect on voltage-dependent Na^+ channels [2] | effect on voltage-dependent Ca^+2 channels [3] | IC50 [4] [nM] | IC50 [5] [nM] | recovery of NMDA-evoked current after washout [5] | reversibility [5] | IC50 (GluN1a–GluN2B) [nM] | recovery of NMDA-evoked currents after washout (GluN1a–GluN2B) | selectivity for NMDAr containing the GluN2B subunit [6]
C[C@]12N[C@H](Cc3ccccc31)c1ccccc12 [(+)MK-801, Dizocilpine] | blocked the NMDA-evoked currents | irreversible | increased with exposures to the blocker | – | – | – | – | – | – | – | – | – | – | –
C[C@@H](CN1CCC(Cc2ccccc2)CC1)[C@@H](O)c1ccc(O)cc1 [Ro 25-6981] | – | no reversibility following 4 min of washout | use-dependent | 70 | 100 | minimal or no effects | minimal or no effects | – | – | – | – | – | – | –
conantokin-G: 17 amino acid peptide (MW 2264.2 Da), cone snail toxin selective for NMDAr containing GluN2B (GEEELQENQELIREKSN; ends and bridges not checked; UniProt P07231 81-97, looked up) | – | – | – | – | – | – | – | 480 | 480 | about 10% | very slow and incomplete reversibility | 100 | about 80% | selective for NMDAr containing the GluN2B subunit
